Results taken from patent US9326513B2, “Fungicidal compositions” (Syngenta Participations AG, priority 2011, dated 2016).

What was measured:
Format in all cases: in vivo
Conditions in all cases: foliar, compared to untreated control leaf disks, read-out: disease control
[1] = test system: Blumeria graminis f. sp. tritici (Erysiphe graminis f. sp. tritici); assay: Blumeria graminis f. sp. tritici / wheat / leaf disc preventative (powdery mildew on wheat)
Procedure, shortened: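 Wheat leaf segments (cv. Kanzler) on agar were sprayed with formulated compound in water, inoculated with powdery mildew 1 day later, and kept at 20° C, 60% rh (24 h dark, then 12 h light/12 h dark). Percent disease control versus untreated scored 6-8 days after application; tested at 200 ppm.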

[2] = test system: Puccinia recondita f. sp. tritici; assay: Puccinia recondita f. sp. tritici / wheat / leaf disc preventative (brown rust)
Excerpt: Puccinia recondita f. sp. tritici/Wheat/Leaf Disc Preventative (Brown Rust) Wheat leaf segments cv. Kanzler were placed on agar in multiwell plates (24-well format) and sprayed with the formulated test compound diluted in water. The leaf disks were inoculated with a spore suspension of the fungus 1 day after application.

[3] = test system: Puccinia recondita f. sp. tritici; assay: Puccinia recondita f. sp. tritici / wheat / leaf disc curative (brown rust)
Method: Puccinia recondita f. sp. tritici/Wheat/Leaf Disc Curative (Brown Rust) Wheat leaf segments cv. Kanzler are placed on agar in multiwell plates (24-well format). The leaf segments are inoculated with a spore suspension of the fungus. Plates were stored in darkness at 19° C. and 75% rh. The formulated test compound diluted in water was applied 1 day after inoculation.

Pyrenophora teres = Pyrenophora teres / barley / leaf disc preventative (net blotch)
Excerpt: Pyrenophora teres/Barley/Leaf Disc Preventative (Net Blotch) Barley leaf segments cv. Hasso were placed on agar in a multiwell plate (24-well format) and sprayed with the formulated test compound diluted in water. The leaf segments were inoculated with a spore suspension of the fungus 2 days after application.

Measured: pest or weed control at 200 ppm

C=CCCC(C)Oc1nc(C)c(/N=C/N(C)CC)cc1Br (stereo not shown) [Q.220]
≥ 50%: all assays above

CCN(C)/C=N/c1cc(Br)c(OC2CCN(C(=O)C(C)C)CC2)nc1C [Q.162]
≥ 50%: all assays above

CCN(C)/C=N/c1cc(Br)c(OCCCC(C)O)nc1C (stereo not shown) [Q.035]
≥ 50%: all assays above

Cc1ccccc1CC(C)Oc1ccc(/N=C/N(C)C(C)C)c(C)n1 (stereo not shown) [Q.355]
≥ 50%: all assays above

CCN(C)/C=N/c1cc(Br)c(OC(C)c2ccccc2F)nc1C (stereo not shown) [Q.299]
≥ 50%: all assays above

CCN(C)/C=N/c1cc(C2CC2)c(OC2Cc3cc(OC)c(OC)cc3C2)nc1C [Q.069]
≥ 50%: all assays above

CCN(C)/C=N/c1cc(Br)c(OCCc2ccc(OC)cc2)nc1C [Q.011]
≥ 50%: all assays above

CCN(C)/C=N/c1cc(Br)c(OC2CCc3ccc(C(C)O)cc3C2)nc1C (stereo not shown) [Q.044]
≥ 50%: all assays above

CCN(C)/C=N/c1cc(Br)c(OC(C)CC(C)C)nc1C (stereo not shown) [Q.392]
≥ 50%: all assays above

CCN(C)/C=N/c1cc(Br)c(OCCCCc2ccc(OC)cc2)nc1C [Q.046]
≥ 50%: all assays above

CCN(C)/C=N/c1cc(C(F)F)c(O[C@H]2CC[C@@H](C(C)C)CC2)nc1C [Q.247]
≥ 50%: all assays above

CCN(C)/C=N/c1cc(Br)c(OCC2CCc3ccccc3C2)nc1C (stereo not shown) [Q.224]
≥ 50%: all assays above

C=Cc1ccccc1COc1nc(C)c(/N=C/N(C)CC)cc1Br [Q.275]
≥ 50%: all assays above

CCN(C)/C=N/c1cc(Br)c(OC2CCC(OC)CC2)nc1C (stereo not shown) [Q.166]
≥ 50%: all assays above

CCN(C)/C=N/c1cc(Br)c(OC2CCS(=O)(=O)CC2)nc1C [Q.161]
≥ 50%: all assays above

C=CCOc1nc(C)c(/N=C/N(C)CC)cc1Br [Q.393]
≥ 50%: all assays above

CCN(C)/C=N/c1cc(Br)c(OC2CCC(C)C2)nc1C (stereo not shown) [Q.167]
≥ 50%: all assays above

CCN(C)/C=N/c1cc(Br)c(OCc2ccccc2Br)nc1C [Q.302]
≥ 50%: all assays above

CCC(C)Oc1nc(C)c(/N=C/N(C)CC)cc1Br (stereo not shown) [Q.389]
≥ 50%: all assays above

Cc1ccccc1CCOc1ccc(/N=C/N(C)C(C)C)c(C)n1 [Q.352]
≥ 50%: all assays above

C#Cc1cc(/N=C/N(C)CC)c(C)nc1O[C@H]1CC[C@@H](C(C)C)CC1 [Q.250]
≥ 50%: all assays above

CCN(C)/C=N/c1cc(Br)c(OCc2ccc(OC)nc2)nc1C [Q.115]
≥ 50%: all assays above

CCN(C)/C=N/c1cc(I)c(OCc2ccccc2C)nc1C [Q.386]
≥ 50%: all assays above

CCN(C)/C=N/c1cc(Br)c(OC2Cc3cc(Cl)c(OC)cc3C2)nc1C (stereo not shown) [Q.378]
≥ 50%: all assays above

CCN(/C=N/c1cc(Br)c(OCCCC(C)C)nc1C)CC [Q.001]
≥ 50%: all assays above

CCN(C)/C=N/c1cc(Br)c(OCCCCc2ccccc2)nc1C [Q.148]
≥ 50%: all assays above

C=CC(C)Oc1nc(C)c(/N=C/N(C)CC)cc1Br (stereo not shown) [Q.394]
≥ 50%: all assays above

CCN(C)/C=N/c1cc(Br)c(OC2CCC(C)C(C)CC2)nc1C (stereo not shown) [Q.308]
≥ 50%: all assays above

CCN(C)/C=N/c1cc(Br)c(OC2CCC(C)=C(C)CC2)nc1C [Q.231]
≥ 50%: all assays above

CCN(C)/C=N/c1cc(Br)c(OCc2ccc(F)c(F)c2)nc1C [Q.206]
≥ 50%: all assays above

CCN(C)/C=N/c1cc(Br)c(OC(C)c2ccccc2)nc1C (stereo not shown) [Q.102]
≥ 50%: all assays above

CCN(C)/C=N/c1cc(Br)c(OC2CCC(C(C)C)CC2)nc1C (stereo not shown) [Q.334]
≥ 50%: all assays above

CCN(C)/C=N/c1cc(Br)c(OC2CCC(c3ccccc3)CC2)nc1C (stereo not shown) [Q.082]
≥ 50%: all assays above

CCN(C)/C=N/c1cc(Br)c(OC2CCN(C(=O)OC(C)(C)C)CC2)nc1C [Q.038]
≥ 50%: all assays above
